# Paper PMC11822212, “High-throughput screening identifies Aurora kinase B as a critical therapeutic target for Merkel cell carcinoma” (Nature Communications, 2025)
# Columns and labels:
# [1] = system: MCC13 cells (VN-MCC); assay: qHTS cell viability (CellTiter-Glo, 72 h; primary and follow-up small molecule screen); format: cell-based, human
# [2] = system: MCC26 cells (VN-MCC); assay: as above; format: cell-based, human
# [3] = system: UISO cells (VN-MCC); assay: as above; format: cell-based, human
# [4] = system: WAGA cells (VP-MCC); assay: as above; format: cell-based, human
# [5] = system: MKL-1 cells (VP-MCC); assay: as above; format: cell-based, human
# [6] = system: MKL-2 cells (VP-MCC); assay: as above; format: cell-based, human
# [7] = system: HACAT cells; assay: qHTS cell viability (CellTiter-Glo, 72 h; primary screen), control cell line; format: cell-based, human
# [8] = system: HEK293T cells; assay: as above; format: cell-based, human
# [9] = system: NIH-3T3 cells; assay: as above; format: cell-based, mouse
# [10] = system: CRL-7250 cells; assay: as above; format: cell-based
structure (smiles),measurement,setting,value
O=c1cccc2n1C[C@@H]1CNC[C@H]2C1 [Cytisine],Area under the dose-response curve (AUC) MCC13 Replicate 1,[1],466.2
same,Area under the dose-response curve (AUC) MCC13 Replicate 2,[1],472.1
same,Area under the dose-response curve (AUC) MCC13 Replicate 3,[1],495.9
same,MCC13_AUC,[1],474.327
same,Area under the dose-response curve (AUC) MCC26 Replicate 1,[2],425.8
same,Area under the dose-response curve (AUC) MCC26 Replicate 2,[2],426.1
same,Area under the dose-response curve (AUC) MCC26 Replicate 3,[2],461.0
same,MCC26_AUC,[2],479.664
same,Area under the dose-response curve (AUC) UISO Replicate 1,[3],456.3
same,Area under the dose-response curve (AUC) UISO Replicate 2,[3],469.0
same,Area under the dose-response curve (AUC) UISO Replicate 3,[3],502.6
same,UISO_AUC,[3],498.318
same,Area under the dose-response curve (AUC) WAGA Replicate 1,[4],496.1
same,Area under the dose-response curve (AUC) WAGA Replicate 2,[4],525.9
same,Area under the dose-response curve (AUC) WAGA Replicate 3,[4],499.6
same,WAGA_AUC,[4],346.525
same,Area under the dose-response curve (AUC) MKL-1 Replicate 1,[5],469.7
same,Area under the dose-response curve (AUC) MKL-1 Replicate 2,[5],497.8
same,Area under the dose-response curve (AUC) MKL-1 Replicate 3,[5],481.7
same,MKL1_AUC,[5],435.746
same,Area under the dose-response curve (AUC) MKL-2 Replicate 1,[6],465.6
same,Area under the dose-response curve (AUC) MKL-2 Replicate 2,[6],500.2
same,Area under the dose-response curve (AUC) MKL-2 Replicate 3,[6],495.6
same,MKL2_AUC,[6],398.634
same,HACAT_AUC,[7],465.853
same,HEK293T_AUC,[8],476.432
same,NIH3T3_AUC,[9],477.468
same,CRL7250_AUC,[10],469.524
